Experiment: photoluminescence quantum yield (fraction); solvent given as SMILES

## CCNc1ccc2c(C(F)(F)F)cc(=O)oc2c1
In C1CCC2CCCCC2C1
  photoluminescence quantum yield: 0.72
In C1CCCCC1
  photoluminescence quantum yield: 0.74
In CC1CCCCC1
  photoluminescence quantum yield: 0.77
In CC#N
  photoluminescence quantum yield: 0.56
In CC(C)=O
  photoluminescence quantum yield: 0.53
In CC(C)O
  photoluminescence quantum yield: 0.54
In CCC(C)CC
  photoluminescence quantum yield: 0.75
In CCCC(C)C
  photoluminescence quantum yield: 0.77
In CCCCCC
  photoluminescence quantum yield: 0.76
In CCCCCCO
  photoluminescence quantum yield: 0.54
In CCCCO
  photoluminescence quantum yield: 0.53
In CCO
  photoluminescence quantum yield: 0.47
In CCOC(C)=O
  photoluminescence quantum yield: 0.61
In CO
  photoluminescence quantum yield: 0.46

## CC1(C)C(/C=C/c2cc3ccc(O)cc3oc2=O)=[N+](CCCS(=O)(=O)[O-])c2ccc3c(S(=O)(=O)O)cc(S(=O)(=O)O)cc3c21
In CCO
  photoluminescence quantum yield: 0.014
In CS(C)=O
  photoluminescence quantum yield: 0.025
In O
  photoluminescence quantum yield: 0.027

## COc1ccc(-n2nc(C#N)c(N3CCOCC3)n2)cc1
In CC#N
  photoluminescence quantum yield: 0.856

## COc1ccc(C2=C(c3ccc([N+](=O)[O-])cc3)C(c3ccccc3)=[N+]3C2=Nc2c(-c4ccc(OC)cc4)c(-c4ccc([N+](=O)[O-])cc4)c(-c4ccccc4)n2[B-]3(F)F)cc1
In Cc1ccccc1
  photoluminescence quantum yield: 0.05

## CCCCCCCCN1c2ccc(C#Cc3ccc(C(F)(F)F)cc3)cc2Sc2cc(C=O)ccc21
In C1CCOC1
  photoluminescence quantum yield: 0.67
In CC#N
  photoluminescence quantum yield: 0.63
In CCCCCC
  photoluminescence quantum yield: 0.57
In CO
  photoluminescence quantum yield: 0.23
In CS(C)=O
  photoluminescence quantum yield: 0.72
In Cc1ccccc1
  photoluminescence quantum yield: 0.62
In ClC(Cl)Cl
  photoluminescence quantum yield: 0.59

## C(=C\c1nc(/C=C/c2ccc(N(c3ccccc3)c3ccccc3)cc2)cc(/C=C/c2ccc(N(c3ccccc3)c3ccccc3)cc2)n1)/c1ccccc1
In ClCCl
  photoluminescence quantum yield: 0.78

## c1csc(-c2ccc(-c3cccs3)c3nsnc23)c1
In ClC(Cl)Cl
  photoluminescence quantum yield: 0.59

## CCCCCCCCCCOc1ccc(C#Cc2ccc(C#Cc3ccc(OCCCCCCCCCC)c(OCCCCCCCCCC)c3)c3nc4c5ccccc5c5ccccc5c4nc23)cc1OCCCCCCCCCC
In C1CCOC1
  photoluminescence quantum yield: 0.23
In Cc1ccccc1
  photoluminescence quantum yield: 0.24
In ClCCl
  photoluminescence quantum yield: 0.22

## Cc1cc2nc3c(=O)[nH]c(=O)n(C)c3nc2cc1C
In CC#N
  photoluminescence quantum yield: 0.027

## COC(=O)C1=C(C(=O)OC)C2(c3ccccc3-c3c(C(=O)OC)cccc32)[C@@H](c2ccc(Cl)cc2)C=C2c3cc(OC)c(OC)cc3CCN21 (stereo not given in full)
In ClCCl
  photoluminescence quantum yield: 0.00593

## c1ccc(-c2ccc(-c3ccccc3)s2)cc1
In C1CCOC1
  photoluminescence quantum yield: 0.07

## COCCOc1cc(C=O)c(OCCOC)cc1C=O
In CC(C)(C)O
  photoluminescence quantum yield: 0.11
In CC(C)CO
  photoluminescence quantum yield: 0.1
In CC(C)O
  photoluminescence quantum yield: 0.1
In CCCCO
  photoluminescence quantum yield: 0.17
In CCCO
  photoluminescence quantum yield: 0.19
In CCO
  photoluminescence quantum yield: 0.18
In CN(C)C=O
  photoluminescence quantum yield: 0.03
In CNC=O
  photoluminescence quantum yield: 0.08
In CO
  photoluminescence quantum yield: 0.22
In NC=O
  photoluminescence quantum yield: 0.3
In O
  photoluminescence quantum yield: 0.54

## C(=C\c1cc(/C=C/c2ccc(N(c3ccccc3)c3ccccc3)cc2)ncn1)/c1ccc(N(c2ccccc2)c2ccccc2)cc1
In ClCCl
  photoluminescence quantum yield: 0.55

## CC1=CC(C)=[N+]2C1=Cc1c3ccccc3c(C#Cc3ccsc3)n1[B-]2(F)F
In CCCCCC
  photoluminescence quantum yield: 1
In CCCCCCCCO
  photoluminescence quantum yield: 0.72
In CCOC(C)=O
  photoluminescence quantum yield: 0.81
In CN(C)C=O
  photoluminescence quantum yield: 0.67
In ClCCl
  photoluminescence quantum yield: 0.8

## CCCCCCCCCCCCSc1cc2c3c(ccc4c5c(SCCCCCCCCCCCC)cc6c7c(ccc(c1c34)c75)C(=O)N(C1CCCCC1)C6=O)C(=O)N(C1CCCCC1)C2=O
In ClC(Cl)Cl
  photoluminescence quantum yield: 0.155

## c1ccc(/C(=C(\c2ccccc2)c2ccccc2-c2ccc(-c3ccccc3)cc2)c2ccccc2-c2ccc(-c3ccccc3)cc2)cc1
In C1CCOC1
  photoluminescence quantum yield: 0.32

## N#Cc1ccc(-c2cn3cc(C#N)c[n+]3[n-]2)cc1
In ClCCl
  photoluminescence quantum yield: 0.45

## c1cnc2c(c1)c1nc(-c3ccc(-c4nc5c6cccnc6c6ncccc6c5[nH]4)cc3)[nH]c1c1cccnc12
In CS(C)=O
  photoluminescence quantum yield: 0.84

## c1ccc(B2Nc3cc4c(cc3-c3sccc32)NB(c2ccccc2)c2ccsc2-4)cc1
In ClCCl
  photoluminescence quantum yield: 0.17

## C(=C\c1cc[n+](Cc2ccccc2)cc1)/c1cc[n+](Cc2ccccc2)cc1
In CC#N
  photoluminescence quantum yield: 0.0006

## COc1ccc(-c2nc(C)cc(-c3ccc(-n4c5ccccc5c5ccccc54)cc3)n2)cc1
In C1CCOC1
  photoluminescence quantum yield: 0.47
In CN(C)C=O
  photoluminescence quantum yield: 0.68
In Cc1ccccc1
  photoluminescence quantum yield: 0.46
In ClC(Cl)Cl
  photoluminescence quantum yield: 0.65

## N#C/C(=C\c1ccncc1)c1nc(-c2ccccc2)cs1
In CC#N
  photoluminescence quantum yield: 0.263
In CCO
  photoluminescence quantum yield: 0.6
In CN(C)C=O
  photoluminescence quantum yield: 0.406
In CS(C)=O
  photoluminescence quantum yield: 0.124
In Cc1ccccc1
  photoluminescence quantum yield: 0.346
In ClCCl
  photoluminescence quantum yield: 0.086

## N#Cc1ccc(N(c2ccc(C#N)cc2)c2ccc3c4cccc5c(N(c6ccc(C#N)cc6)c6ccc(C#N)cc6)ccc(c6cccc2c63)c54)cc1
In ClCCl
  photoluminescence quantum yield: 0.91

## Cc1ccc(-[c+]2c3ccccc3oc3ccccc32)cc1
In CC#N
  photoluminescence quantum yield: 0.014

## O=c1c2cc(I)ccc2nc2n1[B-](F)(F)[n+]1ccccc1-2
In CC#N
  photoluminescence quantum yield: 0.58
In ClCCl
  photoluminescence quantum yield: 0.73

## CCCCN(CCCC)c1ccc(/C=C/c2ccc3nc(/C=C/c4ccc(N(C)C)cc4)c(=O)n(CCC)c3c2)cc1
In C1COCCO1
  photoluminescence quantum yield: 0.26
In CC#N
  photoluminescence quantum yield: 0.04
In ClCCl
  photoluminescence quantum yield: 0.2

## COc1ccc(C2=[N+]3C(=Nc4c(-c5cc(OC)c(OC)c(OC)c5)c(Br)c(-c5ccc(OC)cc5)n4[B-]3(F)F)C(c3cc(OC)c(OC)c(OC)c3)=C2Br)cc1
In Cc1ccccc1
  photoluminescence quantum yield: 0.002

Reference: the Deep4Chem optical property database
